Tests used:
CNS uptake of WP1244 = settings: in vivo
[1] = test system: orthotopic U87 model of GBM; assay: In vivo efficacy in orthotopic U87 GBM model; settings: nude athymic mice, intracranial U87; three doses at 1 and 5 mg/kg IP from day 10
Description: FIG. 2—In vivo efficacy of WP1244 in orthotopic U87 GBM model. Eighteen nude athymic mice were implanted intracranially with 0.5 mln U87 GBM cells. Animals were randomized into three experimental groups (n=6). The treatment was initiated on day 10 and consisted of three doses ow WP1244 at 1 and 5 mg/kg given IP.

[2] = Solubility in water and 5% dextrose at room temperature; format: physicochemical
Description: To improve solubility and develop IV injectable formulation, different salts of WP1244 were prepared.

ependymoma cell lines = assay: In vitro cytotoxicity in ependymoma cell lines; format: cell-based
From the text: (§1) FIG. 3—In vitro efficacy of WP1874 in ependymoma, normal kidney, glioblastoma, and medulloblastoma cell lines.

[3] = test system: glioblastoma multiforme (GBM) cell lines; assay: In vitro cytotoxicity in glioblastoma multiforme (GBM) cell lines; format: cell-based
From the text: as §1

## COc1cccc2c1C(=O)c1c(O)c3c(c(O)c1C2=O)C[C@](O)(C(C)=O)C[C@H]3OC1CC(NCc2ccc(NC(=O)c3cc(NC(=O)c4cc(NC(=O)c5ccccn5)cn4C)cn3C)cc2)C(O)C(C)O1 (stereo partly shown) [WP1244]
CNS uptake of WP1244
  CNS uptake: especially high CNS uptake
[1]
  In vivo activity in orthotopic U87 GBM model: demonstrated in vivo activity
[2]; 5% dextrose, room temperature
  Solubility in 5% Dextrose: Lower than 0.25 mg/mL
[2]; salt forms compared for IV injectable formulation
  Solubility (in words): poor solubility
[2]; water, room temperature
  Solubility in H2O: Lower than 0.25 mg/mL
Ependymoma cell lines
  Cytotoxicity: picomolar to low nanomolar
[3]
  Cytotoxicity: picomolar to low nanomolar

From patent US20250009727A1, “WATER-SOLUBLE SALTS OF DNA BINDING AGENTS” (BOARD OF REGENTS, THE UNIVERSITY OF TEXAS SYSTEM, priority 2021, published 2025)
